# Test results taken from PMC11233931, “Remodeling tumor‐associated macrophage for anti‐cancer effects by rational design of irreversible inhibition of mitogen‐activated protein kinase‐activated protein kinase 2” (MedComm, 2024).
# Legend:
# Assay in all cases: Eurofins kinase selectivity profile against 380 other human recombinant kinases (Table S2)
# Type in all cases: biochemical
# [1] = target: T1, 380 human recombinant protein kinases (Homo sapiens, UniProt P42681); conditions: Txk(h), read-out: Inhibition rate (%)
# T1 construct: purchased Eurofins (Celle Lévescault)
# T1 sequence (P42681 1-527): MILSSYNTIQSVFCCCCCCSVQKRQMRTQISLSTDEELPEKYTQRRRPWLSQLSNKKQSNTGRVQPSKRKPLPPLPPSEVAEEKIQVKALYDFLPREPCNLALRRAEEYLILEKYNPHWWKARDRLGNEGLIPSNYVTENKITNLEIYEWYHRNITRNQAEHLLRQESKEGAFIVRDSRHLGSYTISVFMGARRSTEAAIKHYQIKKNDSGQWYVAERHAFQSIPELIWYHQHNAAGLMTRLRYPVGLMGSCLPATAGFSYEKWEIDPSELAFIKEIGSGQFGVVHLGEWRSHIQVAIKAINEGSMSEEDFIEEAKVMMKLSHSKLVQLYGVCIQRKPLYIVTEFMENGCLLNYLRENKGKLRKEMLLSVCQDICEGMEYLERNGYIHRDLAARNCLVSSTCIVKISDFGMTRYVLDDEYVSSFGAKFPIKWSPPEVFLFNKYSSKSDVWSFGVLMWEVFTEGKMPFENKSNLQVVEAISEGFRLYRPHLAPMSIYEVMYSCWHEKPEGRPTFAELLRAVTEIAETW
# Procedure, shortened: (§1)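 The inhibitor was sent to a contract lab and screened at various concentrations against 380 human recombinant protein kinases. This served as a counter-screen for MK2 specificity.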
# [2] = target: T2, 380 human recombinant protein kinases (Homo sapiens, UniProt Q07002); conditions: CDK18/cyclinY(h), read-out: Inhibition rate
# T2 construct: purchased Eurofins (Celle Lévescault)
# T2 sequence (Q07002 whole entry): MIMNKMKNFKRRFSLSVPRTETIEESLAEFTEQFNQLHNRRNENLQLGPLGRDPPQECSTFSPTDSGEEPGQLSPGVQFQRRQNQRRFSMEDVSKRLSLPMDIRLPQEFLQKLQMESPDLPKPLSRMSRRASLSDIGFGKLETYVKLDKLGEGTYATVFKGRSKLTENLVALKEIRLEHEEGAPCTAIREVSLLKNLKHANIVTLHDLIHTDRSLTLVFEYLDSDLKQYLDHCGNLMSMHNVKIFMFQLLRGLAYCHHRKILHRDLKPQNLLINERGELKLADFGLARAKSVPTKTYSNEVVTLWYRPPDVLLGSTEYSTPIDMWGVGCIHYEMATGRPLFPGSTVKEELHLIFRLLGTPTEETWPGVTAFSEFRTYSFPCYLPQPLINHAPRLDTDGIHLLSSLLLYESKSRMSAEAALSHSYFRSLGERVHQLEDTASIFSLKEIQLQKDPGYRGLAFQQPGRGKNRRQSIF
# Procedure, shortened: as §1
# [3] = target: T3, 380 human recombinant protein kinases (Homo sapiens, UniProt P49759); conditions: CLK1(h), read-out: Inhibition rate
# T3 construct: purchased Eurofins (Celle Lévescault)
# T3 sequence (P49759 whole entry): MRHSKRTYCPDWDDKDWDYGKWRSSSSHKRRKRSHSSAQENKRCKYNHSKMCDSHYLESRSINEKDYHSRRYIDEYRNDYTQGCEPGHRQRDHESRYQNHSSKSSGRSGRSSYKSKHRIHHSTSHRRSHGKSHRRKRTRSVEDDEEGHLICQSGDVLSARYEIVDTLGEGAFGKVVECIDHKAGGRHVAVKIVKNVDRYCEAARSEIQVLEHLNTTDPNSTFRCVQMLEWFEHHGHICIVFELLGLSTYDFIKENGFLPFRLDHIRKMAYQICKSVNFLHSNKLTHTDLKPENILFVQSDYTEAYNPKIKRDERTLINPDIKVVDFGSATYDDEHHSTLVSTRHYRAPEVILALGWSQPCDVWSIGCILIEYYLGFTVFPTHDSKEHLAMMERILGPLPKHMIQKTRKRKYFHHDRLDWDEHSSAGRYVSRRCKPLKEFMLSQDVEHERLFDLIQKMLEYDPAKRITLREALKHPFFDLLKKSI
# Procedure, shortened: as §1
# [4] = target: T4, 380 human recombinant protein kinases (Homo sapiens, UniProt Q2M2I8); conditions: AAK1(h), read-out: Inhibition rate
# T4 construct: purchased Eurofins (Celle Lévescault)
# Procedure, shortened: as §1
# [5] = target: T5, 380 human recombinant protein kinases (Homo sapiens, UniProt Q86Y07); conditions: VRK2(h), read-out: Inhibition rate (%)
# T5 construct: purchased Eurofins (Celle Lévescault)
# T5 sequence (Q86Y07 whole entry): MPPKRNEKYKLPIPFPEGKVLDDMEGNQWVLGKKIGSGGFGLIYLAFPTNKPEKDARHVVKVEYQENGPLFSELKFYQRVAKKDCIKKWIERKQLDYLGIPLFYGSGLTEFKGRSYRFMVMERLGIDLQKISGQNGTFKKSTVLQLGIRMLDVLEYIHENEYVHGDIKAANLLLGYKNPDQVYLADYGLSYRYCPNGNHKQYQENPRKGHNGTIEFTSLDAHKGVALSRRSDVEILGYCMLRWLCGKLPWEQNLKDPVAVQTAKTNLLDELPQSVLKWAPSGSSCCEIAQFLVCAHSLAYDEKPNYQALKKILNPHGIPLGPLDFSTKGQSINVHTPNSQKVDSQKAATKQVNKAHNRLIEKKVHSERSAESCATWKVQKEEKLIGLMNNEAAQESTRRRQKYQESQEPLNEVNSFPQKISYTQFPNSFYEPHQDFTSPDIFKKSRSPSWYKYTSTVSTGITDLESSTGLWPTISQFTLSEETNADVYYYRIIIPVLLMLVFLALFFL
# Procedure, shortened: as §1
# [6] = target: T6, 380 human recombinant protein kinases (Homo sapiens, UniProt P15056); conditions: B-Raf(h), read-out: Inhibition rate
# T6 construct: purchased Eurofins (Celle Lévescault)
# T6 sequence (P15056 whole entry): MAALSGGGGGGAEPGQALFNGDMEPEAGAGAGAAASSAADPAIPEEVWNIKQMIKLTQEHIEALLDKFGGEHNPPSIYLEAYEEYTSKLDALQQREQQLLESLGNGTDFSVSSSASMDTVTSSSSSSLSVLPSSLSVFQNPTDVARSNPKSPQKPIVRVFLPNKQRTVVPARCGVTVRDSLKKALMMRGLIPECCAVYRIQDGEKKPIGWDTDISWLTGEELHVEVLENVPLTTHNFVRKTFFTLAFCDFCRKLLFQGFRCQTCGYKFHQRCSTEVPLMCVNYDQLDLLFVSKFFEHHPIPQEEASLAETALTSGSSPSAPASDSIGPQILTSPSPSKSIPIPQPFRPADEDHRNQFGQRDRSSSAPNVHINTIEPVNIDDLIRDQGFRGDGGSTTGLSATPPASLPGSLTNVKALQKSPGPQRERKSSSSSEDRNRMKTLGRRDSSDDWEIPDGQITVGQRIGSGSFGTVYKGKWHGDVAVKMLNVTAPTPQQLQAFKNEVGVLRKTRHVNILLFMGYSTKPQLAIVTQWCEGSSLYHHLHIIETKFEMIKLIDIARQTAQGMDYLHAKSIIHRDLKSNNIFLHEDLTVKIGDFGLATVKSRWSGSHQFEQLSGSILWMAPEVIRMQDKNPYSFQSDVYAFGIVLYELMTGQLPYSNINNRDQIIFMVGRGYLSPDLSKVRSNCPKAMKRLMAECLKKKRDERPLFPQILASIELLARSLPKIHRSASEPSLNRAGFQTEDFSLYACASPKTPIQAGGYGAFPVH
# Procedure, shortened: as §1
# [7] = target: T7, 380 human recombinant protein kinases (Homo sapiens, UniProt Q9BYT3); conditions: STK33(h), read-out: Inhibition rate (%)
# T7 construct: purchased Eurofins (Celle Lévescault)
# T7 sequence (Q9BYT3 whole entry): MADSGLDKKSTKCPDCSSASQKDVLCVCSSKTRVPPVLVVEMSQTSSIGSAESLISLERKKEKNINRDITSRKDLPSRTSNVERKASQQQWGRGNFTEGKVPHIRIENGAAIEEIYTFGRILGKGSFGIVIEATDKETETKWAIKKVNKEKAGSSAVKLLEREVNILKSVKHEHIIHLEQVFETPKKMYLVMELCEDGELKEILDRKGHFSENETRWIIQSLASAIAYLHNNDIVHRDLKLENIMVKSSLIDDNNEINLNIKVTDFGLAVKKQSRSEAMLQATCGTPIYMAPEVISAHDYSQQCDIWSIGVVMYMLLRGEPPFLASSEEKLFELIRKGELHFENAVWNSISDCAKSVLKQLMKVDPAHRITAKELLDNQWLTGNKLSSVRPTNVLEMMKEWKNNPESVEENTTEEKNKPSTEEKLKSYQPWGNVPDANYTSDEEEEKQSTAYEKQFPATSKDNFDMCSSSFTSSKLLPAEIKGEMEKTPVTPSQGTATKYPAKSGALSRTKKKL
# Procedure, shortened: as §1
# [8] = target: T8, 380 human recombinant protein kinases (Homo sapiens, UniProt P15735); conditions: PhKγ2(h), read-out: Inhibition rate
# T8 construct: purchased Eurofins (Celle Lévescault)
# T8 sequence (P15735 1-406): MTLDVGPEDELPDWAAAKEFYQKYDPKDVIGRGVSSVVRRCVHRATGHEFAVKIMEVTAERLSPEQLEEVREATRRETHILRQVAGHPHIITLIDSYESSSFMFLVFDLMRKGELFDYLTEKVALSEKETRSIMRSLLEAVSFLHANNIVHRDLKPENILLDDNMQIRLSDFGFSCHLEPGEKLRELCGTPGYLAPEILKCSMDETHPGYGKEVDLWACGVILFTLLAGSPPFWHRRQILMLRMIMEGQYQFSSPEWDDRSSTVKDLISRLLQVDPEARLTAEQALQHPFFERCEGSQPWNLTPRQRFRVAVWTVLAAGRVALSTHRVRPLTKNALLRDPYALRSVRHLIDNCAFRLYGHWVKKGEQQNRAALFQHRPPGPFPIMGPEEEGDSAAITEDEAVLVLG
# Procedure, shortened: as §1
# [9] = target: T9, 380 human recombinant protein kinases (Homo sapiens, UniProt P08581); conditions: Met(h), read-out: Inhibition rate
# T9 construct: purchased Eurofins (Celle Lévescault)
# Procedure, shortened: as §1
# [10] = target: T10, 380 human recombinant protein kinases (Homo sapiens, UniProt Q9H1R3); conditions: MYLK2(h), read-out: Inhibition rate
# T10 construct: purchased Eurofins (Celle Lévescault)
# T10 sequence (Q9H1R3 whole entry): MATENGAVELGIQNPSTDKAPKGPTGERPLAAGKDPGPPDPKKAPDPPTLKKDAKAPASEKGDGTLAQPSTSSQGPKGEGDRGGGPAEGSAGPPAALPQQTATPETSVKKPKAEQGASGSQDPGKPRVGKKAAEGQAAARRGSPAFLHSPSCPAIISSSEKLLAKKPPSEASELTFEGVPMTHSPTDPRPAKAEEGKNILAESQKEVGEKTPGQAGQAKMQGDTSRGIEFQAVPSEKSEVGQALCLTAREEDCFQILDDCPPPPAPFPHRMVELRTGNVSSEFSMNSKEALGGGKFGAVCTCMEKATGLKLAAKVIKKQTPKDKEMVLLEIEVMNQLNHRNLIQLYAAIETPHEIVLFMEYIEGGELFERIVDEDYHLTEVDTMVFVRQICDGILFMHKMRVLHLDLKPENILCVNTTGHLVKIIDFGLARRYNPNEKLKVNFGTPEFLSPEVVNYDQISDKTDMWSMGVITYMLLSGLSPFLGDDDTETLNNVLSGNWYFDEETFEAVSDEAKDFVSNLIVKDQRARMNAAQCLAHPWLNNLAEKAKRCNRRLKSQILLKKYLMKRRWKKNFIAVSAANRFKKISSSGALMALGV
# Procedure, shortened: as §1
# [11] = target: T11, 380 human recombinant protein kinases (Homo sapiens, UniProt Q13153); conditions: PAK1(h), read-out: Inhibition rate
# T11 construct: purchased Eurofins (Celle Lévescault)
# Procedure, shortened: as §1
# [12] = target: T12, 380 human recombinant protein kinases (Homo sapiens, UniProt P00519, T315I); conditions: Abl(T315I)(h), read-out: Inhibition rate
# T12 construct: purchased Eurofins (Celle Lévescault)
# Procedure, shortened: as §1
# [13] = target: T13, 380 human recombinant protein kinases (Homo sapiens, UniProt P36507); conditions: MEK2(h), read-out: Inhibition rate
# T13 construct: purchased Eurofins (Celle Lévescault)
# T13 sequence (P36507 whole entry): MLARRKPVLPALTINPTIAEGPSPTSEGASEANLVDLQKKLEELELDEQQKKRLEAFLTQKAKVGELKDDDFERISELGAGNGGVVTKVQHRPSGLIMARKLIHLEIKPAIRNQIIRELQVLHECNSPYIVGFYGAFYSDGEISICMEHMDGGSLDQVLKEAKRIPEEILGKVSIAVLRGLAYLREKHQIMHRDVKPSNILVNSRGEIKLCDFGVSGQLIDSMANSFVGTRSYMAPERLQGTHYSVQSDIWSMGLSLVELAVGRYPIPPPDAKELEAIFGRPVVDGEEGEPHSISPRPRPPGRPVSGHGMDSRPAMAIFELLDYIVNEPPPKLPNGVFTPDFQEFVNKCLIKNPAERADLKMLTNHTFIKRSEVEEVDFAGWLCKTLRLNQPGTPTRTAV
# Procedure, shortened: as §1
# [14] = target: T14, 380 human recombinant protein kinases (Homo sapiens, UniProt P17252); conditions: PKCα(h), read-out: Inhibition rate
# T14 construct: purchased Eurofins (Celle Lévescault)
# Procedure, shortened: as §1
# [15] = target: T15, 380 human recombinant protein kinases (Homo sapiens, UniProt P19525); conditions: PKR(h), read-out: Inhibition rate
# T15 construct: purchased Eurofins (Celle Lévescault)
# T15 sequence (P19525 whole entry): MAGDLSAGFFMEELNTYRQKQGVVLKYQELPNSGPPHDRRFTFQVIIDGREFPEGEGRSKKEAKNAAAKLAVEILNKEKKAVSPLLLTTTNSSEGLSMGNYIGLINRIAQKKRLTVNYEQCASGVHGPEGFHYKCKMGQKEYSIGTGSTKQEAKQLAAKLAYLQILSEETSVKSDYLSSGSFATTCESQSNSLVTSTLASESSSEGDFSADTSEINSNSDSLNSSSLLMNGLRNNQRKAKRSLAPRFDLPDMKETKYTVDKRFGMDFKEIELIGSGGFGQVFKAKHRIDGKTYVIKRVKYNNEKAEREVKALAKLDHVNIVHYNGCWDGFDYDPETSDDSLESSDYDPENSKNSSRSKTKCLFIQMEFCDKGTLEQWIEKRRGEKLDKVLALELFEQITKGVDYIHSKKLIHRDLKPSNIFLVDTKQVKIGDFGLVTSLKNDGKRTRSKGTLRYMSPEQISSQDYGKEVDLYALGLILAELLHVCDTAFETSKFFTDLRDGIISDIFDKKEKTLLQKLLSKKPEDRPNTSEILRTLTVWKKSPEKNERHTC
# Procedure, shortened: as §1
smiles,measurement,setting,value
C=CC(=O)Nc1cc(-c2cc(-c3cc4c([nH]3)CCNC4=O)ccn2)ccc1OC(F)(F)F [compound 11],inhibition at 0.01 µM,[1]; 10 nM,-3%
same,inhibition at 0.1 µM,[1]; 100 nM,1%
same,inhibition at 1 µM,[1]; 1000 nM,-1%
same,inhibition at 0.01 µM,[2]; 10 nM,-5%
same,inhibition at 0.1 µM,[2]; 100 nM,2%
same,inhibition at 1 µM,[2]; 1000 nM,-3%
same,inhibition at 0.01 µM,[3]; 10 nM,-7%
same,inhibition at 0.1 µM,[3]; 100 nM,12%
same,inhibition at 1 µM,[3]; 1000 nM,70%
same,inhibition at 0.01 µM,[4]; 10 nM,-1%
same,inhibition at 0.1 µM,[4]; 100 nM,11%
same,inhibition at 1 µM,[4]; 1000 nM,39%
same,inhibition at 0.01 µM,[5]; 10 nM,7%
same,inhibition at 0.1 µM,[5]; 100 nM,8%
same,inhibition at 1 µM,[5]; 1000 nM,7%
same,inhibition at 0.01 µM,[6]; 10 nM,-7%
same,inhibition at 0.1 µM,[6]; 100 nM,-7%
same,inhibition at 1 µM,[6]; 1000 nM,4%
same,inhibition at 0.01 µM,[7]; 10 nM,8%
same,inhibition at 0.1 µM,[7]; 100 nM,18%
same,inhibition at 1 µM,[7]; 1000 nM,64%
same,inhibition at 0.01 µM,[8]; 10 nM,8%
same,inhibition at 0.1 µM,[8]; 100 nM,1%
same,inhibition at 1 µM,[8]; 1000 nM,2%
same,inhibition at 0.01 µM,[9]; 10 nM,6%
same,inhibition at 0.1 µM,[9]; 100 nM,21%
same,inhibition at 1 µM,[9]; 1000 nM,62%
same,inhibition at 0.01 µM,[10]; 10 nM,-2%
same,inhibition at 0.1 µM,[10]; 100 nM,6%
same,inhibition at 1 µM,[10]; 1000 nM,29%
same,inhibition at 0.01 µM,[11]; 10 nM,-10%
same,inhibition at 0.1 µM,[11]; 100 nM,-7%
same,inhibition at 1 µM,[11]; 1000 nM,-5%
same,inhibition at 0.01 µM,[12]; 10 nM,6%
same,inhibition at 0.1 µM,[12]; 100 nM,11%
same,inhibition at 1 µM,[12]; 1000 nM,31%
same,inhibition at 0.01 µM,[13]; 10 nM,-4%
same,inhibition at 0.1 µM,[13]; 100 nM,4%
same,inhibition at 1 µM,[13]; 1000 nM,6%
same,inhibition at 0.01 µM,[14]; 10 nM,5%
same,inhibition at 0.1 µM,[14]; 100 nM,14%
same,inhibition at 1 µM,[14]; 1000 nM,6%
same,inhibition at 0.01 µM,[15]; 10 nM,3%
same,inhibition at 0.1 µM,[15]; 100 nM,3%
same,inhibition at 1 µM,[15]; 1000 nM,9%
